Measured values taken from patent US20220192985A1, “METHOD OF PRODUCTION OF A COMPOSITE OF YEAST-DERIVED BETA GLUCAN PARTICLE WITH INCORPORATED POORLY-WATER-SOLUBLE LOW-MOLECULAR-WEIGHT COMPOUND, PHARMACEUTICAL PREPARATION AND USE THEREOF” (VYSOKA SKOLA CHEMICKO-TECHNOLOGICKA V PRAZE, priority 2019, published 2022).

Experiments:
Format in all cases: physicochemical
[1] = Powder rheology shear test (FT4), Example 8; settings: pre-sheared at 3 kPa; ATO/GP mass ratio 25%
Protocol: (§1) The moisture (water content) of the samples was firstly measure using a moisture analysis balance (simple test, 100° C., 5 mg initial mass, infrared drying). […] The samples were then dried for 24 hours in the oven with very-slowly-moving fan at 30° C. Finally, a shear test (FIG. 15) was performed on the samples a Powder Rheometer FT4 (pre-sheared at 3 kPa consolidation and initial mass of 0.6-0.7 g).

[2] = Powder rheology shear test (FT4), Comparative Example 9; settings: pre-sheared at 3 kPa, mass ratio 10%
Protocol: Shear tests were performed on the samples a Powder Rheometer FT4 (pre-sheared at 3 kPa consolidation and initial mass of 0.6-0.7 g). The tests were carried out per duplicate under laboratory conditions (21.2±0.7° C. and 35.1±2.0% relative humidity).

[3] = Moisture (water content), moisture analysis balance; settings: first measurement, 100° C. infrared drying
Protocol: as §1

[4] = Dissolution test of (IBU+ASA)/GP, crude IBU and crude ASA in 10 mM HCl (pH 2.0); settings: 10 mM HCl pH 2.0, room temperature; compared with encapsulated drug
Protocol: Dissolution tests (FIG. 11) were performed for crude micronized ibuprofen, crude acetylsalicylic acid and for the produced (IBU+ASA)/GP composite particles, in powder form and using 10 mM HCl (pH 2.0) as dissolution medium. For that, 20.0 mg of crude drug (IBU or ASA) or 100.0 mg of (IBU+ASA)/GP composite, were added to 200 mL of continuously stirred dissolution medium (for a maximum concentration of 0.1 mg of drug per ml of medium). The mixtures were continuously stirred at 250 rpm and room temperature in a 250-mL beaker. At pre-defined time-points (ranging from 0 to 60 min), 500 μL of sample were collected, centrifuged and filtered (200-nm pore size filtration membrane), and the concentration was evaluated by high-performance liquid chromatography (HPLC) with UV detection (Agilent), coupled with C18 column (100 mm×4.6 mm, 5 μm) and mobile phase consisting of 0.01 M ammonium phosphate buffer (pH 2.0) and acetonitrile, in gradient according to the Table 2: […]

CC(C)c1c(C(=O)Nc2ccccc2)c(-c2ccccc2)c(-c2ccc(F)cc2)n1CC[C@@H](O)C[C@@H](O)CC(=O)O [Crude ATO, atorvastatin]
AIF (Angle of Internal Friction) [1]: 45.3 ° | Cohesion [1]: 0.879 kPa | Cohesion ([2]; 21.2±0.7° C., 35.1±2.0% relative humidity): 0.81 ± 0.21 kPa | AIF (Angle of Internal Friction) [2]: 51.24 ± 0.82 ° | Category (flowability) [2]: Cohesive | FF (Flow Function) [2]: 2.43 ± 0.48 | moisture (water content) [3]: 2.5 % wt.

CC(=O)Oc1ccccc1C(=O)O [crude ASA, acetylsalicylic acid]
dissolution rate [4]: slower dissolution rates

CC(C)Cc1ccc(C(C)C(=O)O)cc1 (stereo not drawn) [crude IBU, ibuprofen]
dissolution rate [4]: slower dissolution rates
